According to patent publication US20250195483A1, “SPIRO PIPERIDINE DERIVATIVES AS INHIBITORS OF APOL1 AND METHODS OF USING SAME” (Vertex Pharmaceuticals Incorporated, priority 2022, published 2025):

target: T1, APOL1 (Homo sapiens, UniProt O14791); experiment: MultiTox-Fluor Multiplex Cytotoxicity Assay, tet-inducible APOL1 T-REx-HEK293 cells (G0, G1 or G2 clone not specified for Table 20); format: cell-based; details: tet-induced, 24 hours with compound, ratio of dead to live cells, read-out: IP50 (i.e., IC50 for cell proliferation)
T1 sequence (O14791 1-398): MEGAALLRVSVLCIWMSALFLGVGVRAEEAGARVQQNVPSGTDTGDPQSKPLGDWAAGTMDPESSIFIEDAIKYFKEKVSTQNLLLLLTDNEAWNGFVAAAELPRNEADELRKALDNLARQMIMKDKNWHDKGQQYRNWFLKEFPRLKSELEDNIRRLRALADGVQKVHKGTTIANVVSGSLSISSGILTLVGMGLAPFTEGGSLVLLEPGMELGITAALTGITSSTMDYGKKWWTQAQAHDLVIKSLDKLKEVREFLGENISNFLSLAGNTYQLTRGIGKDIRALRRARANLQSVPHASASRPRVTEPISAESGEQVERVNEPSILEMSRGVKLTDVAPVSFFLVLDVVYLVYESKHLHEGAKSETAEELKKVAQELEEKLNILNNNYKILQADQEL
Summary of the method: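 HEK293 T-REx cells with tet-inducible APOL1 G0, G1 or G2 clone, 23,400/well, treated with tetracycline plus compound (top 10 μM, 10-point 3-fold, duplicate) for 24 h at 37° C. MultiTox-Fluor dead/live fluorescence ratio, normalized to no-tet (100% viability) and 50 ng/mL tet (0% viability) controls, then curve-fitted.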

Row | Compound | IC50
1 | Cc1n[nH]c(C(F)(F)Cn2cc(CN3CC[C@]4(C[C@@H]3C)OCCc3ccc(Cl)cc34)nn2)n1 [Compound 168] | 50 to 500 nM
2 | CC(C)n1cc(Cn2cc(CN3CC[C@]4(C[C@@H]3C)OCCc3ccc(Cl)cc34)nn2)c(=O)[nH]c1=O [Compound 169] | ≤ 50 nM
3 | Cc1nn(CCO)cc1Cn1cc(CN2CC[C@]3(C[C@@H]2C)OCCc2ccc(Cl)cc23)nn1 [Compound 170] | ≤ 50 nM
4 | C[C@H]1C[C@@]2(CCN1Cc1cn(CC(=O)NCC3(C#N)CC3)nn1)OCCc1ccc(Cl)cc12 [Compound 171] | ≤ 50 nM
5 | C[C@H]1C[C@@]2(CCN1Cc1cn(Cc3ccc(C(N)=O)o3)nn1)OCCc1ccc(Cl)cc12 [Compound 172] | ≤ 50 nM
6 | CCNC(=O)NCCn1cc(CN2CC[C@]3(C[C@@H]2C)OCCc2ccc(Cl)cc23)nn1 [Compound 173] | ≤ 50 nM
7 | Cc1ccc(Cn2cc(CN3CC[C@]4(C[C@@H]3C)OCCc3ccc(Cl)cc34)nn2)c(=O)[nH]1 [Compound 174] | 50 to 500 nM
8 | C[C@H]1C[C@@]2(CCN1Cc1cn(CC3(CC(N)=O)CC3)nn1)OCCc1ccc(Cl)cc12 [Compound 175] | ≤ 50 nM
9 | C[C@H]1C[C@@]2(CCN1Cc1cn(Cc3nccn(C)c3=O)nn1)OCCc1ccc(Cl)cc12 [Compound 176] | 50 to 500 nM
10 | C[C@H]1C[C@@]2(CCN1Cc1cn(Cc3ncc4c(n3)CCOC4)nn1)OCCc1ccc(Cl)cc12 [Compound 177] | 50 to 500 nM
11 | Cc1nnc(O)c(Cn2cc(CN3CC[C@]4(C[C@@H]3C)OCCc3ccc(Cl)cc34)nn2)c1C [Compound 178] | 50 to 500 nM
12 | C[C@H]1C[C@@]2(CCN1Cc1cn(CCCn3ccc(=O)[nH]c3=O)nn1)OCCc1ccc(Cl)cc12 [Compound 179] | ≤ 50 nM
13 | Cc1cc(Cn2cc(CN3CC[C@]4(C[C@@H]3C)OCCc3ccc(Cl)cc34)nn2)cc(=O)[nH]1 [Compound 180] | 50 to 500 nM
14 | C[C@H]1C[C@@]2(CCN1Cc1cn(Cc3cn(C4COC4)nn3)nn1)OCCc1ccc(Cl)cc12 [Compound 181] | ≤ 50 nM
15 | C[C@H]1C[C@@]2(CCN1Cc1cn(Cc3ncc(C(N)=O)s3)nn1)OCCc1ccc(Cl)cc12 [Compound 182] | ≤ 50 nM
16 | C[C@H]1C[C@@]2(CCN1Cc1cn(CCc3nccc(=O)[nH]3)nn1)OCCc1ccc(Cl)cc12 [Compound 183] | 50 to 500 nM
17 | C[C@H]1C[C@@]2(CCN1Cc1cn(CC3(C(N)=O)CCOCC3)nn1)OCCc1ccc(Cl)cc12 [Compound 184] | ≤ 50 nM
18 | C[C@H]1C[C@@]2(CCN1Cc1cn(Cc3nnc(N(C)C)[nH]3)nn1)OCCc1ccc(Cl)cc12 [Compound 185] | 50 to 500 nM
19 | C[C@H]1C[C@@]2(CCN1Cc1cn(CC(=O)Nc3cn[nH]c3)nn1)OCCc1ccc(Cl)cc12 [Compound 186] | ≤ 50 nM
20 | C[C@H]1C[C@@]2(CCN1Cc1cn(CCNS(=O)(=O)C3CC3)nn1)OCCc1ccc(Cl)cc12 [Compound 187] | ≤ 50 nM
21 | C[C@H]1C[C@@]2(CCN1Cc1cn(CC3(C(N)=O)CC3)nn1)OCCc1ccc(Cl)cc12 [Compound 188] | ≤ 50 nM
22 | C[C@H]1C[C@@]2(CCN1Cc1cn(Cc3cn(C4CC4)c(=O)[nH]c3=O)nn1)OCCc1ccc(Cl)cc12 [Compound 189] | ≤ 50 nM
23 | CNC(=O)C1OC2(CCN(Cc3cnn(-c4ccccc4)c3)CC2)c2ccccc21 (centres unmarked) [Compound 190, N-methyl-1′-[(1-phenylpyrazol-4-yl)methyl]spiro[1H-isobenzofuran-3,4′-piperidine]-1-carboxamide] | ≥ 500 nM
24 | NC(=O)C1OC2(CCN(Cc3cnn(-c4ccccc4)c3)CC2)c2cc(Cl)ccc21 (centres unmarked) [Compound 191, 5-chloro-1′-[(1-phenylpyrazol-4-yl)methyl]spiro[1H-isobenzofuran-3,4′-piperidine]-1-carboxamide] | ≤ 50 nM
25 | O=C(O)C1OC2(CCN(Cc3cnn(-c4ccccc4)c3)CC2)c2cc(Cl)ccc21 (centres unmarked) [Compound 192, 5-chloro-1′-[(1-phenylpyrazol-4-yl)methyl]spiro[1H-isobenzofuran-3,4′-piperidine]-1-carboxylic acid] | ≥ 500 nM
26 | CNC(=O)C1OC2(CCN(Cc3cnn(-c4ccccc4)c3)CC2)c2cc(Cl)ccc21 (centres unmarked) [Compound 195, 5-chloro-N-methyl-1′-[(1-phenylpyrazol-4-yl)methyl]spiro[1H-isobenzofuran-3,4′-piperidine]-1-carboxamide] | ≤ 50 nM
27 | Cc1ccc2c(c1)C1(CCN(Cc3cnn(-c4ccccc4)c3)CC1)OC2C(N)=O (centres unmarked) [Compound 196] | ≤ 50 nM

Row | Compound | IC50
28 | NC(=O)C1OC2(CCN(Cc3cnn(-c4ccccc4)c3)CC2)c2cc(C(F)(F)F)ccc21 (centres unmarked) [Compound 197] | ≤ 50 nM
29 | CNC(=O)C1OC2(CCN(Cc3cnn(-c4ccccc4)c3)CC2)c2cc(C)ccc21 (centres unmarked) [Compound 198] | ≤ 50 nM
30 | CNC(=O)C1OC2(CCN(Cc3cnn(-c4ccccc4)c3)CC2)c2cc(C(F)(F)F)ccc21 (centres unmarked) [Compound 199] | 50 to 500 nM
31 | CNC(=O)C1OC2(CCN(Cc3cnn(C4CCOCC4)c3)CC2)c2cc(Cl)ccc21 (centres unmarked) [Compound 200] | 50 to 500 nM
32 | NC(=O)C1OC2(CCN(Cc3cnn(-c4ccccn4)c3)CC2)c2cc(Cl)ccc21 (centres unmarked) [Compound 201] | ≤ 50 nM
33 | CNC(=O)C1OC2(CCN(Cc3cnn(-c4cccnc4)c3)CC2)c2cc(Cl)ccc21 (centres unmarked) [Compound 202] | ≤ 50 nM
34 | N#Cc1ccc2c(c1)C1(CCN(Cc3cnn(-c4ccccc4)c3)CC1)OC2C(N)=O (centres unmarked) [Compound 203, 5-cyano-1′-[(1-phenylpyrazol-4-yl)methyl]spiro[1H-isobenzofuran-3,4′-piperidine]-1-carboxamide] | ≤ 50 nM
35 | CNC(=O)C1OC2(CCN(Cc3cnn(-c4ccccc4)c3)CC2)c2cc(C#N)ccc21 (centres unmarked) [Compound 204, 5-cyano-N-methyl-1′-[(1-phenylpyrazol-4-yl)methyl]spiro[1H-isobenzofuran-3,4′-piperidine]-1-carboxamide] | 50 to 500 nM
36 | CCc1ccc2c(c1)C1(CCN(Cc3cnn(-c4ccccc4)c3)CC1)OC2C(N)=O (centres unmarked) [Compound 205, 5-ethyl-1′-[(1-phenylpyrazol-4-yl)methyl]spiro[1H-isobenzofuran-3,4′-piperidine]-1-carboxamide] | ≤ 50 nM
37 | CCc1ccc2c(c1)C1(CCN(Cc3cnn(-c4ccccc4)c3)CC1)OC2C(=O)NC (centres unmarked) [Compound 206, 5-ethyl-N-methyl-1′-[(1-phenylpyrazol-4-yl)methyl]spiro[1H-isobenzofuran-3,4′-piperidine]-1-carboxamide] | 50 to 500 nM
38 | CS(=O)(=O)CCn1cc(CN2CCC3(CC2)OC(C(N)=O)c2ccc(C(F)(F)F)cc23)nn1 (centres unmarked) [Compound 207, 1′-[[1-(2-methylsulfonylethyl)triazol-4-yl]methyl]-5-(trifluoromethyl)spiro[1H-isobenzofuran-3,4′-piperidine]-1-carboxamide] | ≥ 500 nM
39 | CS(=O)(=O)CCn1cc(CN2CCC3(CC2)OC(C(N)=O)c2ccc(Cl)cc23)nn1 (centres unmarked) [Compound 208, 5-chloro-1′-[[1-(2-methylsulfonylethyl)triazol-4-yl]methyl]spiro[1H-isobenzofuran-3,4′-piperidine]-1-carboxamide] | ≥ 500 nM
40 | Cc1ncc(-n2cc(CN3CCC4(CC3)OC(C(N)=O)c3ccc(Cl)cc34)cn2)cn1 (centres unmarked) [Compound 209, 5-chloro-1′-[[1-(2-methylpyrimidin-5-yl)pyrazol-4-yl]methyl]spiro[1H-isobenzofuran-3,4′-piperidine]-1-carboxamide] | ≤ 50 nM
41 | CNC(=O)C1OC2(CCN(Cc3cnn(CCS(C)(=O)=O)c3)CC2)c2cc(Cl)ccc21 (centres unmarked) [Compound 210, 5-chloro-N-methyl-1′-[[1-(2-methylsulfonylethyl)pyrazol-4-yl]methyl]spiro[1H-isobenzofuran-3,4′-piperidine]-1-carboxamide] | 50 to 500 nM
42 | CNC(=O)C1OC2(CCN(Cc3cnn(-c4cnc(C)nc4)c3)CC2)c2cc(Cl)ccc21 (centres unmarked) [Compound 211, 5-chloro-N-methyl-1′-[[1-(2-methylpyrimidin-5-yl)pyrazol-4-yl]methyl]spiro[1H-isobenzofuran-3,4′-piperidine]-1-carboxamide] | ≤ 50 nM
43 | NC(=O)C1OC2(CCN(Cc3cnn(-c4cccc(C(F)(F)F)c4)c3)CC2)c2cc(Cl)ccc21 (centres unmarked) [Compound 212, 5-chloro-1′-[[1-[3-(trifluoromethyl)phenyl]pyrazol-4-yl]methyl]spiro[1H-isobenzofuran-3,4′-piperidine]-1-carboxamide] | ≤ 50 nM
44 | Cc1c(CN2CCC3(CC2)OC(C(N)=O)c2ccc(Cl)cc23)cnn1-c1ccccc1 (centres unmarked) [Compound 213] | 50 to 500 nM
45 | CS(=O)(=O)CCn1cc(CN2CCC3(CC2)OC(C(N)=O)c2ccc(Cl)cc23)cn1 (centres unmarked) [Compound 214] | ≤ 50 nM
46 | Cc1ncc(CN2CCC3(CC2)OC(C(N)=O)c2ccc(Cl)cc23)cn1 (centres unmarked) [Compound 215] | ≥ 500 nM
47 | Cn1cc(CN2CCC3(CC2)OC(C(N)=O)c2ccc(Cl)cc23)cn1 (centres unmarked) [Compound 216] | ≤ 50 nM
48 | N#Cc1ccc(CN2CCC3(CC2)OC(C(N)=O)c2ccc(Cl)cc23)cc1 (centres unmarked) [Compound 217] | 50 to 500 nM
49 | Cc1ccc(CN2CCC3(CC2)OC(C(N)=O)c2ccc(Cl)cc23)nn1 (centres unmarked) [Compound 218] | ≥ 500 nM
50 | NC(=O)C1OC2(CCN(Cc3cnn(C4CCS(=O)(=O)C4)c3)CC2)c2cc(Cl)ccc21 (centres unmarked) [Compound 219] | ≤ 50 nM
51 | CC(C)n1cc(CN2CCC3(CC2)OC(C(N)=O)c2ccc(Cl)cc23)cn1 (centres unmarked) [Compound 220] | ≥ 500 nM
52 | Cc1nc(CN2CCC3(CC2)OC(C(N)=O)c2ccc(Cl)cc23)co1 (centres unmarked) [Compound 221] | ≥ 500 nM
53 | Cc1nc(CN2CCC3(CC2)OC(C(N)=O)c2ccc(Cl)cc23)c[nH]1 (centres unmarked) [Compound 222] | ≥ 500 nM
